Broadly, the inhibition is the relative decrease from the control value, in per cent. A higher inhibition goes with strong suppression.

The target of test [1] is Prostaglandin G/H synthase 1 (Homo sapiens) (UniProt P23219). As to the kind of experiment: Inhibition of COX1 at 100 ug/mL.
The next test deals with AGS. In words: Cytotoxicity against human AGS cells by MTT assay. Type of test: functional.
A further test has as its system MCF7. As to the kind of experiment: Cytotoxicity against human MCF7 cells by MTT assay. It is filed as functional. (Tetrazolium dyes change colour on reduction, which living cells bring about.)
In another test the test system is SF-268. As to the kind of experiment: Cytotoxicity against human SF-268 cells by MTT assay. Type of test: functional.
A short description of test [2]: Cytotoxicity against human HCT 116 cells by MTT assay. It is filed as functional.
The test system of the next test is NCI-H460. In words: Cytotoxicity against human NCI-H460 cells by MTT assay. Type of test: functional.
In test [3] the target is T1, Prostaglandin G/H synthase 2 (Homo sapiens) (UniProt P35354).
T1 sequence (whole entry): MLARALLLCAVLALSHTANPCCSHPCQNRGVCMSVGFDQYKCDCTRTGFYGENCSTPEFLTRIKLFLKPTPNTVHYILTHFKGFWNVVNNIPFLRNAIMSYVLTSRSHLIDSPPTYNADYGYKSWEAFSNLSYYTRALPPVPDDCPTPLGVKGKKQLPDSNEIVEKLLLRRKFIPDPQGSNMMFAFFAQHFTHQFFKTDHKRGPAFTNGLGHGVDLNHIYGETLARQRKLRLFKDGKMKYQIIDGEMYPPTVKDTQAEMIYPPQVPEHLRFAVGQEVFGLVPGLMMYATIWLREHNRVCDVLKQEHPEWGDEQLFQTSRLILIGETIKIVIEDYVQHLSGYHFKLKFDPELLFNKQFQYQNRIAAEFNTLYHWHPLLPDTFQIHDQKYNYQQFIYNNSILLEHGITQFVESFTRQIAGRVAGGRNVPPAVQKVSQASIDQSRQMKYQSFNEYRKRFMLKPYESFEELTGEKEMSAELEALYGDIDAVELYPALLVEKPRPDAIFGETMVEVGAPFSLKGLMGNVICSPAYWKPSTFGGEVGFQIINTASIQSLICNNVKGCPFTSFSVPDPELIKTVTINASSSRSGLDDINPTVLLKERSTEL
As to the kind of experiment: Inhibition of COX2 at 100 ug/mL.

Sequence of Prostaglandin G/H synthase 1 (Homo sapiens) (P23219 whole entry): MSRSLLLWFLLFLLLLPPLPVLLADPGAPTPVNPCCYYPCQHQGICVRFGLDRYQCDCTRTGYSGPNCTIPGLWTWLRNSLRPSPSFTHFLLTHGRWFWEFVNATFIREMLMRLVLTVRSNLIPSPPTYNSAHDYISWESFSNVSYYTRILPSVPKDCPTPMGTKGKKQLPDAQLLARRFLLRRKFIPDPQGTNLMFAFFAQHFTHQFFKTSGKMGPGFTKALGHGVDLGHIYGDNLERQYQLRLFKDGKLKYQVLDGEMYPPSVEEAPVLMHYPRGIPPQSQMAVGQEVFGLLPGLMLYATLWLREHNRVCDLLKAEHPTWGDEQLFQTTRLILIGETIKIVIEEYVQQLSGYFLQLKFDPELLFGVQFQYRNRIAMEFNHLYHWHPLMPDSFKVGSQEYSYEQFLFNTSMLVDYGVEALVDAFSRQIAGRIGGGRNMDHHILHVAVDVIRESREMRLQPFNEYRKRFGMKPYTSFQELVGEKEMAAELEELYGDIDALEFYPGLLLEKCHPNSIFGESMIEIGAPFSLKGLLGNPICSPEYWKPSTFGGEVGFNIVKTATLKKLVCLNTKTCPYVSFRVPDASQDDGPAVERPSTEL

As to `CC1=C(CO)C(=O)O[C@@H]([C@@H](C)[C@H]2CC[C@H]3[C@@H]4C[C@H](S[C@H]5C[C@H]6[C@@H]7CC[C@H]([C@H](C)[C@H]8CC(C)=C(CO)C(=O)O8)[C@@]7(C)CC[C@@H]6[C@@]6(C)C(=O)C=C[C@H](O)[C@@]56O)[C@]5(O)[C@@H](O)C=CC(=O)[C@]5(C)[C@H]4CC[C@]23C)C1` [ASHWAGANDHANOLIDE], the inhibition in test [1] stood at 65%; in test [3] it was 60%. Moreover, the IG50 was 0.43 µg/mL with AGS; 1.45 µg/mL with MCF7; 0.84 µg/mL in the test on SF-268; 1.25 µg/mL in test [2]; 1.48 µg/mL with NCI-H460.
